Data as given in publication PMC12455572, “Amphipathic Proline-Rich Cell Penetrating Peptides for Targeting Mitochondria” (ACS Chemical Biology, 2025).

System: MCF-7 cells
Test: Flow cytometry at 4 °C versus 37 °C
Format: cell-based
Conditions: MCF-7, 20 µM, 1 h
Experimental: MCF-7 cells were seeded in a 24-well plate at 150′000 cells/well in DMEM (1 mL, 10% FCS), and allowed to adhere overnight. The medium was removed, the cells were washed with PBS (250 μL, 1x) and incubated with the peptide solution at 20 μM, 10 μM, 5 μM or 2.5 μM in medium (200 μL, 1% FCS) for 1 h at 37 °C. The medium was removed, and the cells were washed with PBS (250 μL, 2x). Trypsin (100 μL, 0.05%) was added, and the cells were incubated at 37 °C for 5 min. D-PBS with Mg^2+ and Ca^2+ (300 μL, 4 °C) was added, the cells were resuspended and centrifuged for 5 min at 0.4 rcf. The supernatant was carefully removed, and the cells were resuspended in a solution of PBS containing 1.5 μM PI and 2 mM EDTA (400 μL at 4 °C). […] Each sample contained 10′000 cells and was analyzed in triplicate. […]
Figure S9. […] After 1 h incubation at 4 °C, the fluorescence signal is in case of most of the peptides lower, indicating an endocytosis pathway. […]
of different entry mechanisms. The indicated P-values were determined using one-way ANOVA followed by Tukey’s […]
(also on this page, place not known: µM µM °C µM °C (ChaZZ) µM °C (ChaZZ) µM °C (ChaZZ) µM °C 20000Mean fluorescence intensity (ChaZZ)3 °CCells °C (ChaZZ) µM °C (ChaZZ) µM °C (ChaZZ) 3-Cha µM °C (ChaZZ) 3-Cha µM °C (ChaZZ) 3-Cha µM °C (ChaZZ) 3-Cha µM °C (ChaZZ) 3-Cha µM °C (ChaZZ) 3-Cha µM °C 30000Mean fluorescence intensity)

CF-Ahx-(ChaZZ)3-NH2 was tested, and the “Fluorescence signal after incubation at 4 °C compared with 37 °C (FACS)” value was “close-to-level signal”.
